# Laboratory results reported in US20240189278A1, “NOVEL COMPOUNDS AND METHODS FOR INCREASING KLOTHO GENE EXPRESSION” (Klotho Therapeutics, Inc., priority 2017, published 2024).
# Experiments:
# Format in all cases: in vivo, mouse
# [1] = test system: aged mice; test: Pulse wave velocity (arterial stiffness) in aged mice; conditions: 10 mg/kg/day IP, 2 weeks treatment
# Procedure: (§1) Animal study protocols. This example was performed according to the guide lines of the National Institute of Health on the care and use of laboratory animals and approved by the institutional Animal Care and Use Committee of University of Oklahoma Health Science Center. AU mice were housed in cages at room temperature (2S±PC) and were provided with Purina laboratory chow No 5001) and tap Water and lithium. 6 adult mice (12 months) and 20 old mice (24-26 months) mice were next in this study. The old (aged) mice were randomly divided into three subgroups and each group had 6 or 7 mice. […] The third group received no treatment Blood pressure was measured before and after treatment with the active agent at 1 week and 2 week. Pulse wave velocity (PWV) was measured after 2 weeks treatment with active agent all animals were sacrificed and perfused transcardially with PBS under deep anesthesia (ketamine xylazine, 90/10 mg, IP). […]
# Measurement of Pulse Wave Velocity: Aortic PWV was measured as described previously. […] Velocities were measured with 6-mm crystal […] Doppler probes (Indus Instruments, Webster, TX) at the transverse aortic arch and 3.5 cm distal in the abdominal aorta and collected using Doppler signal processing workstation (Indus instruments). […]
# [2] = test system: elastin; test: Elastin in aortas of aged mice (immunostaining and western blot)
# Procedure: as §1
# Histological and Immunohistochemical Staining: Thoracic aortas were quickly excised and placed in cold (4′T) physiological saline solution. […] Aorta rings were post-fixed in 4% paraformaldehyde, embedded in paraffin and sectioned at […] thickness, Collagen was quantified by Masson' s trichrome staining as described previously. […] Blue-stained collagen areas were quantified with ImageJ (NIH, Bethesda, USA) film 4-5 regions per section. […]
# [3] = test system: TGF-β1; test: Western blot of TGF-β1, aortas of aged mice
# Procedure: (§2) Animal study protocols. This example was performed according to the guide lines of the National Institute of Health on the care and use of laboratory animals and approved by the institutional Animal Care and Use Committee of University of Oklahoma Health Science Center. AU mice were housed in cages at room temperature (2S±PC) and were provided with Purina laboratory chow No 5001) and tap Water and lithium. 6 adult mice (12 months) and 20 old mice (24-26 months) mice were next in this study. The old (aged) mice were randomly divided into three subgroups and each group had 6 or 7 mice. One subgroup received compound H (10 mg/kg/day1, IP, Enamine LLC, Monmouth Jct., NJ) and one group received an equal volume of DMSO (dimethyl sulfoxide, 5%) and served as a control. The third group received no treatment Blood pressure was measured before and after treatment with the active agent at 1 week and 2 week. Pulse wave velocity (PWV) was measured after 2 weeks treatment with active agent all animals were sacrificed and perfused transcardially with PBS under deep anesthesia (ketamine xylazine, 90/10 mg, IP). […]
# (§3) Western Blot Analysis: Protein samples from the thoracic aorta were prepared in Lysis buffer as described previously. […] Protein abundance on western blots was quantified densitometry using Image lab software (Bio-Rad, Hercules, CA).
# [4] = test system: MMP2; test: Western blot of MMP2, aortas of aged mice
# Procedure: as §2, §3
# [5] = test system: DNA demethylase; test: DNA demethylase activity in aged mice; conditions: 2 weeks treatment
# Procedure: as §1
# (§4) Measurement of DNA Demethylase and DNA Methylation force Activity. The DNA demethylase and DNA methyltransferase activity was measured by using DNA demethylase activity qualification kit (Abeam˜Cambridge, MA) and methyltransferase coloritnetxic assay kit (Cayman Chemical Company, Ann Arbor, Michigan). […] The absorbance was read at […] for DNA methylene activity assay and 510 nm for DNA methyltransferase activity using BioTeck Multi-Mole Microplate Readers.
# [6] = test system: LC3; test: Western blot of LC3 in aortas, hearts and kidneys of old mice
# [7] = test system: DNA methyltransferase; test: DNA methyltransferase activity in aged mice; conditions: 2 weeks treatment
# Procedure: as §1, §4
# [8] = test system: Klotho mRNA; test: RT-PCR of Klotho mRNA in kidney of aged mice
# Procedure: Animal study protocols. This example was performed according to the guide lines of the National Institute of Health on the care and use of laboratory animals and approved by the institutional Animal Care and Use Committee of University of Oklahoma Health Science Center. AU mice were housed in cages at room temperature (2S±PC) and were provided with Purina laboratory chow No 5001) and tap Water and lithium. 6 adult mice (12 months) and 20 old mice (24-26 months) mice were next in this study. The old (aged) mice were randomly divided into three subgroups and each group had 6 or 7 mice. One subgroup received compound H (10 mg/kg/day1, IP, Enamine LLC, Monmouth Jct., NJ) and one group received an equal volume of DMSO (dimethyl sulfoxide, 5%) and served as a control. The third group received no treatment Blood pressure was measured before and after treatment with the active agent at 1 week and 2 week. Pulse wave velocity (PWV) was measured after 2 weeks treatment with active agent all animals were sacrificed and perfused transcardially with PBS under deep anesthesia (ketamine xylazine, 90/10 mg, IP). The aortas were then quickly removed, washed and cut into pieces for subsequent analyses.
# Reverse transcription-PCR (RT-PCR): Total RNA was extracted using a Direct˜zol T!vl RNA Miniprep kit (Zymo Research, Irvine CA) from kidney of adult and aged mice. […]
# [9] = test system: MMP9; test: Western blot of MMP9, aortas of aged mice
# Procedure: as §2, §3
# [10] = test system: secreted Klotho; test: Western blot of secreted Klotho in kidney and serum of aged mice
# [11] = test system: full-length Klotho; test: Western blot of full-length Klotho in kidney of aged mice; conditions: kidney of 24-26 month-old mice
# [12] = test system: TGF-β3; test: Western blot of TGF-β3, aortas of aged mice
# Procedure: as §2, §3
compound,measurement,setting,value
"O=C(Nc1ccccc1Cl)c1c[nH]c2ccccc12 [active agent, N-(2-chlorophenyl)-Ul-indde-3-carboxamide]",Pulse wave velocity (PWV),[1],decreased
same,Elastin production,[2],increased
same,TGF-β1 expression,[3],decreased
same,MMP2 protein expression,[4],decreased
same,DNA demethylase activity,[5],increased
same,LC3 expression,[6]; aortas of old mice,did not affect
same,LC3 expression,[6]; hearts of old mice,did not affect
same,LC3 expression,[6]; kidneys of old mice,did not affect
same,DNA methyltransferase activity,[7],did not affect
same,Secreted Klotho mRNA expression,[8],increased
same,MMP9 protein expression,[9],decreased
same,Secreted Klotho protein expression,[10]; kidney of 24-26 month-old mice,significantly increased
same,Circulating levels of secreted Klotho,[10]; serum of aged mice,markedly increased
same,Full-length Klotho expression,[11],did not affect
same,TGF-β3 expression,[12],decreased
